# Measured values published in patent US11964943B2, “3,5-diarylidenyl-n-substituted-piperid-4-one-derived inhibitors of Stat3 pathway activity and uses thereof” (priority 2017, dated 2024).
# Columns and labels:
# [1] = test system: survivin, Bcl-2, Bcl-xL, MMP-9, cleaved PARP, cleaved caspase-3; test: Immunoblotting of Stat3 downstream targets and apoptosis markers; assay type: cell-based
# Procedure: (§1) Whole cell lysates were prepared by incubation of harvested, trypsinised cells with CelLytic™ lysis buffer (Sigma-Aldrich) supplemented with 1× protease and 1× phosphatase inhibitors (Roche). Protein quantification was carried out using a protein assay kit (Bio-Rad). 40 μg of the lysates were denatured by heating for 5 min at 95° C. in sample buffer containing 100 mM Tris-Cl (pH 6.8), 4% SDS, 10% 2-mercaptoethanol, 20% glycerol, and 0.02% bromophenol blue. Precision Plus Protein Dual colour standards (Bio-Rad) were used as a molecular weight reference. For the detection of STAT3, pSTAT3, α/β tubulin, cleaved PARP, Bcl-2, Bcl-xL, FANCD2, BRCA1, EME1 and MUS81, proteins were separated on a NuPAGE 7% Tris-acetate gel (Life Technologies) and subsequently transferred to polyvinylidene difluoride membranes (Immobilon®-P transfer membrane; Millipore). […] Membranes were blocked for 1 h at ambient temperature in a blocking buffer containing 5% w/v Bovine Serum Albumin (BSA; Sigma-Aldrich) in 1×TBS, 0.1% Tween-20. All proteins were identified by incubation in a 1:1000 dilution of the respective polyclonal antibodies (Cell signaling) in blocking buffer overnight at 4° C. and subsequent incubation for 1 h with an anti-rabbit or anti-mouse secondary antibody (Cell signalling) at a dilution of 1:1000. The α/β tubulin (1:2000; Cell Signaling) and the anti-phospho-histone H2AX Antibody (1:500; Millipore) were used in the denoted dilutions. Antibody binding was visualized by enhanced chemiluminescence (Amersham) on autoradiography film (Kodak-X-Omat). Alternatively Images were captured by the GelDoc-It Imaging System Fusion Fx7 (Vilber Lourmat, Germany).
# as §1, with “Immunoblotting. Whole” for “Whole”, “CelLytic™ M” for “CelLytic™”, “pSTAT3, a/0” for “pSTAT3, α/β”, “in 1×TBS” for “in 1×TBS,”, “(Cell signalling)” for “(Cell signaling)”
# [2] = test system: HCT116-oxaliplatin resistant xenografts; test: In vivo survival experiment; design: species or system mice
# Procedure: Six- to eight-week old female Balb/c mice (weighing about 20 g) were purchased from the Harlan Laboratories, San Pietro al Natisone, Italy. The animals were kept in a pathogen-free environment, and every procedure was done in a laminar airflow cabinet. HCT16-oxaliplatin resistant cells (5×10^5) were injected subcutaneously into the right flank of female Balb/c mice. The animals were treated with IE-8 intraperitoneally (30 mg kg-1; solutions freshly prepared in the standard mixture of 1% DMSO, Cremophor, Ethanol and H2O) on days 10, 13 and 17. The animals were controlled for distress development every day. […] Control and treatment group n=4.
# [3] = A2780-cisplatin resistant cells
smiles,measurement,setting,value
"COc1cc(/C=C2\CN(c3ccccc3)C/C(=C\c3cc(OC)c(OC)c(OC)c3)C2=O)cc(OC)c1OC [IE-8, 3,5-Di(3,4,5-trimethoxybenzylidene)-1-phenylpiperidin-4-one]","induction of apoptosis (cleaved PARP, cleaved caspase 3, Annexin-V/PI)",[1]; [3],induced apoptosis
same,inhibition of downstream Stat3 targets Bcl-xL and survivin,[1]; [3],capable of inhibiting
same,downregulation of MMP-9,"[1]; A2780-cisplatin resistant cells, IL-6 stimulated",downregulates the matrix metalloproteinase MMP-9
same,induction of apoptosis (cleaved PARP),"[1]; DU145 and A549 cells, 18 h",induced cell death via apoptosis
same,downregulation of survivin and Bcl-2,"[1]; DU145 cells, 18 h",downregulated the transcription of key Stat3 target genes
same,body weight loss,"[2]; 30 mg/kg intraperitoneally on days 10, 13 and 17",No body weight loss was observed
same,prolongation of survival versus vehicle,"[2]; 30 mg/kg intraperitoneally on days 10, 13 and 17, n=4",about 20 days
